Measured values reported in patent US8163768B2, “1,4-dihydropyridine-fused heterocycles, process for preparing the same, use and compositions containing them” (Aventis Pharma S.A.., priority 2005, dated 2012).

Legend:
Aurora2 (Aurora-A) = target: T1, Aurora2 (Aurora-A) (Homo sapiens, UniProt O14965); assay: Aurora 2 (Aurora A) kinase radioactivity scintillation assay using nickel chelate Flash plates; format: biochemical; details: 10 nM Aurora-A, 500 nM NuMA substrate, 1 μM ATP with [33P] ATP, 10 mM MgCl2, 30 minutes, 37° C.
T1 construct: Aurora-A: the full length recombinant protein including an N-terminal poly-histidine tail has been expressed in E. coli; poly-histidine (N); made in house; host or cells: E. coli
T1 sequence (O14965 1-403): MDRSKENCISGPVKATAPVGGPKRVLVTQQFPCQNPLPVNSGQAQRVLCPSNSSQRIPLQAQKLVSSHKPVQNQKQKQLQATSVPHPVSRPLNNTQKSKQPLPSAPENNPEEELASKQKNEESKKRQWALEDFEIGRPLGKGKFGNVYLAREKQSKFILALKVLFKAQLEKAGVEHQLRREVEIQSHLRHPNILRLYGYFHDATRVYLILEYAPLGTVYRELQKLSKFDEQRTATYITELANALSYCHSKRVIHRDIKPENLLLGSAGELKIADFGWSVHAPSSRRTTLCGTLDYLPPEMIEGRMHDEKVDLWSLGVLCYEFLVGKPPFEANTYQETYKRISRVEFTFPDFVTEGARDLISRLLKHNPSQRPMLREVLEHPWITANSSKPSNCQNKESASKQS
In short: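 10 nM Aurora-B or Aurora-A with 500 nM NuMA-His substrate, 1 μM ATP plus [³³P]ATP, in 50 mM NaCl, 1 mM DTT and 5 mM (B) or 10 mM (A) MgCl2, 30 min at 37° C on nickel-chelate plates. Incorporated ³³P counted after washing, background-subtracted; IC50 fitted from % inhibition versus concentration.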

Aurora1 (Aurora-B) = target: T2, Aurora1 (Aurora-B) (Homo sapiens, UniProt Q96GD4); assay: Aurora 1 (Aurora B) kinase radioactivity scintillation assay using nickel chelate Flash plates; format: biochemical; details: 10 nM Aurora-B (co expressed with C3 fragment of INCEP), 500 nM NuMA substrate, 1 μM ATP with [33P] ATP, 5 mM MgCl2, 30 minutes, 37° C.
T2 construct: Aurora-B: the full length protein (His tagged in N-terminal) has been co expressed in SF9 cells; poly-histidine (N); made in house; host or cells: SF9 cells
Method: Aurora 1 and 2 (Respectively. Aurora B and A)
The inhibitory effect of compounds with respect to the Aurora 1 and 2 kinases is determined with a radioactivity scintillation assay using nickel chelate.
The kinase activity of Aurora is measured by the phosphorylation of NuMA-histidine substrate in the presence of radiolabelled ATP ([^33P] ATP) using 96 well Flash plates where the nickel-chelate is linked to the surface of the microplate. The amount of ^33P incorporated to the substrate NuMA is proportional to the aurora activity.
The Flash plates used are nickel-chelate 96 well plates (Perkin Elmer, model SMP107).
The products to be evaluated are incubated in a 100 μl reaction volume per well in the presence of 10 nM of Aurora-B or Aurora-A, 500 nM of NuMA substrate in the following buffer: 50 mM of NaCl, 5 mM MgCl2, (Aurora-B) or 10 mM MgCl2 (Aurora-A) and 1 mM of DTT at 37° C.
80 μL of enzyme/substrate incubation buffer is distributed in each well, followed by 10 μL of solution of compound to be measured with various concentrations. The reaction is started by adding 1 μM of ATP (final concentration) containing 0.2 μCi of [^33P] ATP (10 μL). After 30 minutes of incubation the reaction is stopped by removal of the reaction mixture and each well is washed twice with 300 μl of buffer Tris/HCl. The radioactivity is measured in each well using a Packard Top count scintillation counter instrument.
The enzymatic activity is expressed as counts per minute obtained in 30 minutes after subtraction of the background noise (reaction medium without enzyme). The measurement is expressed as percentage of inhibition of Aurora activity versus the control. To generate IC50 values, compounds of the invention are tested at different concentration and the percentage of inhibition are plotted as function of compound concentration, IC50s are calculated using the Xlfit 4 curve fitting software.

T2 sequence (Q96GD4 whole entry, species assumed, the tested form may be a part): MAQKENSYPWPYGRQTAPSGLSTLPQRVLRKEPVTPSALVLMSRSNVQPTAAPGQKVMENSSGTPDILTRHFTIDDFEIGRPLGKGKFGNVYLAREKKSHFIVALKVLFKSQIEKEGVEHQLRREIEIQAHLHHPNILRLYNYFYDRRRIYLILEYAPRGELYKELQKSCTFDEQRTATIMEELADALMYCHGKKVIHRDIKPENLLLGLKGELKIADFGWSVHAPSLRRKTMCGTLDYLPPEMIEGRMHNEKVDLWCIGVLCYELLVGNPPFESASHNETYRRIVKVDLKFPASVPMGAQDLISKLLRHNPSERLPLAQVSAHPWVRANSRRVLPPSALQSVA
T2 sequence (Q9NQS7 821-918 partner limits assumed, species assumed): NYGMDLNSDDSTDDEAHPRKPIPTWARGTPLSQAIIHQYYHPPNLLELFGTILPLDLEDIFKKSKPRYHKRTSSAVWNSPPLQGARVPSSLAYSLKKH

SMILES	IC50 (Aurora2 (Aurora-A))	IC50 (Aurora1 (Aurora-B))
Cc1ccc2[nH]c(Sc3ccc(C4C5=C(CCCC5=O)Nc5n[nH]cc54)o3)nc2c1 (stereo not shown) [Example 70, 4-[5-(5-Methyl-1H-benzimidazol-2-ylsulfanyl)-furan-2-yl]-2,4,6,7,8,9-hexahydro-pyrazolo[3,4-b]quinolin-5-one; compound with trifluoro-acetic acid compound with trifluoro-acetic acid]	31 nM	8 nM
Cc1ccc2[nH]c(Sc3ccc(C4C5=C(CNCC5=O)Nc5n[nH]cc54)o3)nc2c1 (stereo not shown) [Example 71, 4-[5-(5-Methyl-1H-benzimidazol-2-ylsulfanyl)-furan-2-yl]-2,4,6,7,8,9-hexahydro-pyrazolo[3,4-b]-1,7-naphthyridin-5-one; compound with trifluoro-acetic acid]	187 nM	15 nM
Cc1ccc2[nH]c(Sc3ccc(C4C5=C(CC(C)(C)CC5=O)Nc5n[nH]cc54)o3)nc2c1 (stereo not shown) [Example 72, 7,7-Dimethyl-4-[5-(5-methyl-1H-benzimidazol-2-ylsulfanyl)-furan-2-yl]-2,4,6,7,8,9-hexahydro-pyrazolo[3,4-b]quinolin-5-one]	20 nM	6 nM
O=C1CCCC2=C1C(c1ccc(Sc3nc4cc(Cl)ccc4s3)o1)c1c[nH]nc1N2 (stereo not shown) [Example 73, 4-[5-(5-Chloro-benzothiazol-2-ylsulfanyl)-furan-2-yl]-2,4,6,7,8,9-hexahydro-pyrazolo[3,4-b]quinolin-5-one; compound with trifluoro-acetic acid]	35 nM	55 nM
O=C1CNCC2=C1C(c1ccc(Sc3nc4cc(Cl)ccc4s3)o1)c1c[nH]nc1N2 (stereo not shown) [Example 74, 4-[5-(5-Chloro-benzothiazol-2-ylsulfanyl)-furan-2-yl]-2,4,6,7,8,9-hexahydro-pyrazolo[3,4-b]-1,7-naphthyridin-5-one; compound with trifluoro-acetic acid]	302 nM	521 nM
CC1(C)CC(=O)C2=C(C1)Nc1n[nH]cc1C2c1ccc(Sc2nc3cc(Cl)ccc3s2)o1 (stereo not shown) [Example 75, 4-[5-(5-Chloro-benzothiazol-2-ylsulfanyl)-furan-2-yl]-7,7-dimethyl-2,4,6,7,8,9-hexahydro-pyrazolo[3,4-b]quinolin-5-one]	73 nM	183 nM
O=C1CCCC2=C1C(c1ccc(Sc3nc4cc(OC(F)F)ccc4[nH]3)o1)c1c[nH]nc1N2 (stereo not shown) [Example 76, 4-[5-(5-Difluoromethoxy-1H-benzimidazol-2-ylsulfanyl)-furan-2-yl]-2,4,6,7,8,9-hexahydro-pyrazolo[3,4-b]quinolin-5-one; compound with trifluoro-acetic acid]	46 nM	9 nM
COc1ccc2nc(Oc3ccc(C4C5=C(CCCC5=O)Nc5n[nH]cc54)o3)[nH]c2c1 (stereo not shown) [Example 77, 4-[5-(6-Methoxy-1H-benzimidazol-2-yloxy)-furan-2-yl]-2,4,6,7,8,9-hexahydro-pyrazolo[3,4-b]quinolin-5-one; compound with trifluoro-acetic acid]	2480 nM	473 nM
Cc1c[nH]c(Sc2ccc(C3C4=C(CCCC4=O)Nc4n[nH]cc43)o2)n1 (stereo not shown) [Example 78, 4-[5-(4-methyl-1H-imidazol-2-ylsulfanyl)-furan-2-yl]-2,4,6,7,8,9-hexahydro-pyrazolo[3,4-b]quinolin-5-one; compound with trifluoro-acetic acid]	331 nM	121 nM
COc1ccc2[nH]c(Sc3ccc(C4C5=C(CCCC5=O)Nc5n[nH]cc54)o3)nc2c1 (stereo not shown) [Example 79, 4-[5-(5-Methoxy-1H-benzimidazol-2-ylsulfanyl)-furan-2-yl]-2,4,6,7,8,9-hexahydro-pyrazolo[3,4-b]quinolin-5-one; compound with trifluoro-acetic acid]	70 nM	15 nM
COc1ccc2[nH]c(Sc3ccc(C4C5=C(CNCC5=O)Nc5n[nH]cc54)o3)nc2c1 (stereo not shown) [Example 80, 4-[5-(5-Methoxy-1H-benzimidazol-2-ylsulfanyl)-furan-2-yl]-2,4,6,7,8,9-hexahydro-pyrazolo[3,4-b]-1,7-naphthyridin-5-one; compound with trifluoro-acetic acid]	495 nM	41 nM
COc1ccc2[nH]c(Sc3ccc(C4C5=C(CC(C)(C)CC5=O)Nc5n[nH]cc54)o3)nc2c1 (stereo not shown) [Example 81, 4-[5-(5-Methoxy-1H-benzimidazol-2-ylsulfanyl)-furan-2-yl]-7,7-dimethyl-2,4,6,7,8,9-hexahydro-pyrazolo[3,4-b]quinolin-5-one]	33 nM	11 nM
Cn1c(Sc2ccc(C3C4=C(CCCC4=O)Nc4n[nH]cc43)o2)nc2ccccc21 (stereo not shown) [Example 82, 4-[5-(1-Methyl-1H-benzimidazol-2-ylsulfanyl)-furan-2-yl]-2,4,6,7,8,9-hexahydro-pyrazolo[3,4-b]quinolin-5-one; compound with trifluoro-acetic acid]	1340 nM	150 nM
Cn1c(Sc2ccc(C3C4=C(CC(C)(C)CC4=O)Nc4n[nH]cc43)o2)nc2ccccc21 (stereo not shown) [Example 84, 7,7-Dimethyl-4-[5-(1-methyl-1H-benzimidazol-2-ylsulfanyl)-furan-2-yl]-2,4,6,7,8,9-hexahydro-pyrazolo[3,4-b]quinoline-5-one]	947 nM	177 nM
O=C1CCCC2=C1C(c1ccc(Sc3nc4cc(Cl)c(Cl)cc4[nH]3)o1)c1c[nH]nc1N2 (stereo not shown) [Example 85, 4-[5-(5,6-Dichloro-1H-benzimidazol-2-ylsulfanyl)-furan-2-yl]-2,4,6,7,8,9-hexahydro-pyrazolo[3,4-b]quinolin-5-one; compound with trifluoro-acetic acid]	22 nM	9 nM
O=C1CNCC2=C1C(c1ccc(Sc3nc4cc(Cl)c(Cl)cc4[nH]3)o1)c1c[nH]nc1N2 (stereo not shown) [Example 86, 4-[5-(5,6-Dichloro-1H-benzoimidazol-2-ylsulfanyl)-furan-2-yl]-2,4,6,7,8,9-hexahydro-pyrazolo[3,4-b]-1,7-naphthyridin-5-one; compound with trifluoro-acetic acid]	82 nM	17 nM
CC1(C)CC(=O)C2=C(C1)Nc1n[nH]cc1C2c1ccc(Sc2nc3cc(Cl)c(Cl)cc3[nH]2)o1 (stereo not shown) [Example 87, 4-[5-(5,6-Dichloro-1H-benzoimidazol-2-ylsulfanyl)-furan-2-yl]-7,7-dimethyl-2,4,6,7,8,9-hexahydro-pyrazolo[3,4-b]quinolin-5-one]	22 nM	8 nM
O=C1CCCC2=C1C(c1ccc(Sc3nc4cc(Cl)ccc4o3)o1)c1c[nH]nc1N2 (stereo not shown) [Example 88, 4-[5-(5-Chloro-benzoxazol-2-ylsulfanyl)-furan-2-yl]-2,4,6,7,8,9-hexahydro-pyrazolo[3,4-b]quinolin-5-one; compound with trifluoro-acetic acid]	362 nM	91 nM
CCOC(=O)c1[nH]cc2c1NC1=C(C(=O)CCC1)C2c1ccc(Sc2nc3cc(O)ccc3[nH]2)o1 (stereo not shown) [Example 89, 9-[5-(5-Hydroxy-1H-benzoimidazol-2-ylsulfanyl)-furan-2-yl]-8-oxo-4,5,6,7,8,9-hexahydro-2H-pyrrolo[3,4-b]quinoline-3-carboxylic acid ethyl ester]	355 nM	31 nM
CC1(C)CC(=O)C2=C(C1)Nc1n[nH]cc1C2c1ccc(Sc2nc3cc(Cl)ccc3o2)o1 (stereo not shown) [Example 90, 4-[5-(5-Chloro-benzoxazol-2-ylsulfanyl)-furan-2-yl]-7,7-dimethyl-2,4,6,7,8,9-hexahydro-pyrazolo[3,4-b]quinoline-5-one]	670 nM	194 nM
